Results from patent US20260365628A1, “SUBSTITUTED 3,4-DIHYDROQUINOLINONE INHIBITORS OF TSHR” (Septerna, Inc., priority 2022, published 2026).

Biological target: T1, hTSHR (Homo sapiens, UniProt P16473)
T1 construct: expressed in transfected cells
Test: hTSHR TR-FRET cAMP Assay (inhibition of M22-stimulated cAMP production)
Assay type: cell-based
Conditions: not given
Experimental: Assays were performed using Expi293F Inducible cells (Invitrogen) stably expressing hTSHR via a pcZeo TetO DNA plasmid. Cell lines were maintained in suspension in Expi293 Expression Medium (ThermoFisher Scientific) supplemented with 10 µg/mL Blasticidin and 10 μg/mL Zeocin and incubated at 37° C., 8% CO2, with shaking. hTSHR cells were incubated overnight at 32° C., 5% C02, with shaking, but […] Doxycycline. Assay-ready aliquots were prepared by harvesting each cell type separately 24-hours post-induction. Cells were pelleted at 4° C., resuspended in Expi293 Expression media+10% DMSO, aliquoted, and kept frozen at −80° C. until ready for use.
For the assay, concentration-response curves of test and reference compounds were added to 384-well plates using an Echo 650 liquid handler (Beckman Coulter) and backfilled with DMSO to a final concentration of 0.5%. cAMP was measured using the cisbio cAMP Gs dynamic HTRF kit (PerkinElmer) according to manufacturer instructions. Aliquots of frozen hTSHR cells were quickly thawed and washed with phosphate-buffered saline (Sigma-Aldrich) to remove media and DMSO. The cells were resuspended in kit-supplied Stimulation Buffer at 0.8×10^6 cells/mL. 7.5 μL of the hTSHR cell dilution were added to each well of the assay plate and incubated with the compounds for 15 minutes in a 37 C, 0% CO2 incubator. 2.5 μL of Vehicle control or an EC80 concentration of recombinant human anti-TSHR antibody (M22, Creative Biolabs) was added to stimulate cAMP production. Cells were incubated with for 30 minutes at 37° C., 0% CO2. Following this incubation, the cells were lysed and accumulated cAMP was detected through the addition of kit-supplied lysis buffer containing d2-reagent and Eu-cryptate antibody. The HTRF signal was quantified using a BMG Clariostar plate reader optimized for HTRF assays. The HTRF ratio was determined by dividing the signal output at […] by that at 620 nm. Data were normalized to the signal produced by the EC80 concentration of either M22 or FSH (0% inhibition) and vehicle (no agonist, 100% inhibition).

T1 sequence (P16473 21-764): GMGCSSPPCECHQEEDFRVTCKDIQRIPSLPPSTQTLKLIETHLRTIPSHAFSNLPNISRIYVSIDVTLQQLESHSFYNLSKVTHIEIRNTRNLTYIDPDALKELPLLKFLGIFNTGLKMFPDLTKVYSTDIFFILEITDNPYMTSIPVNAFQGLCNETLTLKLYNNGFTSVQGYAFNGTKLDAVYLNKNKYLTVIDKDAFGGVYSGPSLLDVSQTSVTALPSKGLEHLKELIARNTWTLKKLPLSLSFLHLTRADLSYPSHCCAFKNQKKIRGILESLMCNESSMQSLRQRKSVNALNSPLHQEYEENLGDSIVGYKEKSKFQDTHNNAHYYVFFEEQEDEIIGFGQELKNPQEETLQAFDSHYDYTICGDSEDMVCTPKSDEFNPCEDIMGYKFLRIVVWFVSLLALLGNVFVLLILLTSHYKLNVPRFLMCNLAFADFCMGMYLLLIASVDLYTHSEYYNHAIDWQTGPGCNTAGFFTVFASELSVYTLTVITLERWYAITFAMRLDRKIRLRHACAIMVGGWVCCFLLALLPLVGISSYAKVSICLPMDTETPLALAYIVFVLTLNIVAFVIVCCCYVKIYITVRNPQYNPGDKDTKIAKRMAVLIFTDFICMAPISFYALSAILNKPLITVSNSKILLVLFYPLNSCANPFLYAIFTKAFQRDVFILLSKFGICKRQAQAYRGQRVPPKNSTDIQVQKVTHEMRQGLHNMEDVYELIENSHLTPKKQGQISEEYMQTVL

Row | Compound | IC50 [nM]
1 | CC(C)(C)NC(=O)Oc1ccc2c(c1)CCC(=O)N2Cc1ccccc1 [Example 63] | > 1000

Same assay, conditions: Expi293F Inducible cells stably expressing hTSHR; cAMP HTRF; stimulated with EC80 of anti-TSHR antibody M22; 15 min compound preincubation, 30 min at 37° C.; read-out: Activity (IC50 bins)

Row | IC50 [nM] | Compound
2 | < 100 | C[C@@H](c1cccc(C(F)(F)F)c1)N1C(=O)COc2cc(NC(=O)NC(C)(C)C)ccc21 [Example 62, (S)-1-(tert-butyl)-3-(3-oxo-4-(1-(3-(trifluoromethyl)phenyl)ethyl)-3,4-dihydro-2H-benzo[b][1,4]oxazin-7-yl)urea]
3 | > 1000 | CC(C)(C)NC(=O)Nc1ccc2c(c1)CCC(=O)N2CC1CCCCC1 [Example 64, 1-(tert-butyl)-3-(1-(cyclohexylmethyl)-2-oxo-1,2,3,4-tetrahydroquinolin-6-yl)urea]
4 | 100 to 1000 | CC(C)(C)NC(=O)Nc1cc2c(cc1F)N(Cc1ccccc1)C(=O)CC2 [Example 65, 1-(1-benzyl-7-fluoro-2-oxo-1,2,3,4-tetrahydroquinolin-6-yl)-3-(tert-butyl)urea]
5 | 100 to 1000 | CC(C)(C)NC(=O)Nc1cc2c(cc1Cl)N(Cc1ccccc1)C(=O)CC2 [Example 66, 1-(1-benzyl-7-chloro-2-oxo-3,4-dihydroquinolin-6-yl)-3-tert-butylurea]
6 | 100 to 1000 | CC(C)(C)NC(=O)Nc1ccc2c(n1)CCC(=O)N2Cc1ccccc1 [Example 67, 1-(5-benzyl-6-oxo-5,6,7,8-tetrahydro-1,5-naphthyridin-2-yl)-3-(tert-butyl)urea]
7 | < 100 | CC(C)(C)NC(=O)Nc1ccc2c(c1)ncc(=O)n2Cc1ccccc1 [Example 68, 1-(1-benzyl-2-oxo-1,2-dihydroquinoxalin-6-yl)-3-(tert-butyl)urea]
8 | 100 to 1000 | CC(C)(C)NC(=O)Nc1cc(F)c2c(c1)CCC(=O)N2Cc1ccccc1 [Example 69, 1-(1-benzyl-8-fluoro-2-oxo-1,2,3,4-tetrahydroquinolin-6-yl)-3-(tert-butyl)urea]
9 | < 100 | CN1Cc2cc(NC(=O)NC(C)(C)C)ccc2N(Cc2cccc(C(F)(F)F)c2)C1=O [Example 70, 1-(tert-butyl)-3-(3-methyl-2-oxo-1-(3-(trifluoromethyl)benzyl)-1,2,3,4-tetrahydroquinazolin-6-yl)urea]
10 | 100 to 1000 | CC(C)(C)NC(=O)Nc1ccc2c(c1)OCC(=O)N2Cc1cccc(C(F)F)c1 [Example 71, 1-(tert-butyl)-3-(4-(3-(difluoromethyl)benzyl)-3-oxo-3,4-dihydro-2H-benzo[b][1,4]oxazin-7-yl)urea]
11 | > 1000 | CC(C)(C)NC(=O)Nc1ccc2c(c1)OCC(=O)N2Cc1cccc(CO)c1 [Example 72, 1-(tert-butyl)-3-(4-(3-(hydroxy-methyl)ben-zyl)-3-oxo-3,4-dihydro-2H-benzo[b][1,4]oxa-zin-7-yl)urea]
12 | 100 to 1000 | CC(C)(C)NC(=O)Nc1ccc2c(c1)OCC(=O)N2Cc1cccc(C2CC2)c1 [Example 73, 1-(tert-butyl)-3-(4-(3-cyclopropylbenzyl)-3-oxo-3,4-dihydro-2H-benzo[b][1,4]oxa-zin-7-yl)urea]
13 | 100 to 1000 | CC(C)(C)NC(=O)Nc1ccc2c(c1)OCC(=O)N2Cc1cccc(OC(F)(F)F)c1 [Example 74, 1-(tert-butyl)-3-(3-oxo-4-(3-(tri-fluoromethoxy)ben-zyl)-3,4-dihydro-2H-benzo[b][1,4]oxa-zin-7-yl)urea]
14 | 100 to 1000 | CC(C)Oc1cccc(CN2C(=O)COc3cc(NC(=O)NC(C)(C)C)ccc32)c1 [Example 75, 1-(tert-butyl)-3-(4-(3-isopropoxybenzyl)-3-oxo-3,4-dihydro-2H-benzo[b][1,4]oxa-zin-7-yl)urea]
15 | > 1000 | CC(C)(C)NC(=O)Nc1ccc2c(c1)OCC(=O)N2Cc1cccc2cn[nH]c12 [Example 76, 1-(4-((1H-indazol-7-y1)methyl)-3-oxo-3,4-dihydro-2H-benzo[b][1,4]oxa-zin-7-yl)-3-(tert-butyl)urea]
16 | 100 to 1000 | CC(C)(C)NC(=O)Nc1ccc2c(c1)OCC(=O)N2Cc1cccc(C(O)C(F)(F)F)c1 (stereo not shown) [Example 77, 1-(tert-butyl)-3-(3-oxo-4-(3-(2,2,2-trifluoro-1-hy-droxyethyl)benzyl)-3,4-dihydro-2H-benzo[b][1,4]oxa-zin-7-yl)urea]
